# Assay results reported in patent US20100113473A1, “ARYL AMIDE COMPOUND AS AN ACETYL COENZYME A CARBOXYLASE INHIBITOR” (priority 2008, published 2010).
# Experiments:
# [1] = target: T1, Human ACC2 (amino acids 1685-2458) (Homo sapiens, UniProt O00763); assay: ThermoFluor measurement of compound binding to ACC2 CT domain; conditions: carboxyterminus (CT) domain, pH 7.0, read-out: ACC2 TF Kd
# T1 construct: Human ACC2 (amino acids 1685-2458); 6His (N, cleaved yes); FLAG (N, cleaved yes); TEV cleavage site (N, cleaved yes); made in house; host or cells: Sf9 insect cells (baculovirus)
# T1 sequence (O00763 1685-2458): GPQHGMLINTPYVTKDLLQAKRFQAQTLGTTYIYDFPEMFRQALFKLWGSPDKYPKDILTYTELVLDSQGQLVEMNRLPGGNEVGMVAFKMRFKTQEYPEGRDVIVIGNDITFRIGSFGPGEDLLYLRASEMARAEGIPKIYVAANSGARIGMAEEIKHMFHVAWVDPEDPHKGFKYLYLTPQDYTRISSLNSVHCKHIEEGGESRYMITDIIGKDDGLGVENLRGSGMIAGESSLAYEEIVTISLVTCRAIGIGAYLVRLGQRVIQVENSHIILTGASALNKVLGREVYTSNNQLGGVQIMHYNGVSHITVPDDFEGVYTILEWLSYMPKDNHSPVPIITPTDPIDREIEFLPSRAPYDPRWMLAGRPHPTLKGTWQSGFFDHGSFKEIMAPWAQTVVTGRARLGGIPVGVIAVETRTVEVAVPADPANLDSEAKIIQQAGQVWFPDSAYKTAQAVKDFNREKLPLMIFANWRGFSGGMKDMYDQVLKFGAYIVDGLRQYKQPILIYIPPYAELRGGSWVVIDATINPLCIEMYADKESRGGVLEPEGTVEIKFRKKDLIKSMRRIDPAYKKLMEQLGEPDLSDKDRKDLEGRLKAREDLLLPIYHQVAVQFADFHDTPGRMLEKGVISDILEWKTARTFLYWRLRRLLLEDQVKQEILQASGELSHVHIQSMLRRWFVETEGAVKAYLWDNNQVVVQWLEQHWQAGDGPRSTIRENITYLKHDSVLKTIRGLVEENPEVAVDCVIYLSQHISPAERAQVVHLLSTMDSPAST
# Protocol: (§1) The 6His.FLAG.TEV Human ACC2 (amino acids 1685-2458) (Egea Biosciences, San Diego, Calif.) and 6His.FLAG. TEV. Human ACC1 (amino acids 1603-2383) (Egea Biosciences, San Diego, Calif.) genes were synthesized and subcloned into the pENTR11 vector. Transfection-grade DNA was purified using the QIAwell® Kit from Qiagen. The LR reaction was performed overnight and then transfected into Sf9 cells using a BaculoDirect® Baculovirus Expression System (Invitrogen). The P0 virus was collected 4 days post transfection and used for another round of virus amplification. The resulting P1 virus and cells were collected 3 days post-infection. […]
# (§2) On-column cleavage of the histidine tag was performed by injecting 96 ug of TEV S219V protease/mg (of ACC2 CT. The product was incubated at 4° C. for 20 hours. The cleaved ACC2 was eluted in buffer A and loaded directly onto a HiLoad® 16/60 Superdex 200 column (GE Healthcare), preequilibrated with 25 mM Tris Buffer (at pH 8.0, 200 mM NaCl, 5% Glycerol, 5 mM DTT). Fractions containing ACC2 CT, assayed by SDS-PAGE, were pooled. For cocrystallization, the compound was added in a 1:2 molar ratio of protein:compound and incubated overnight at 4° C. The complex was concentrated to a final protein concentration of 7 mg/mL using an 30 kDa cut-off Ultrafree® membrane (Millipore, Billerica, Mass.) and was then ready for crystallization. […]
# [2] = target: T2, Human ACC1 (amino acids 1603-2383) (Homo sapiens, UniProt Q13085); assay: ThermoFluor measurement of compound binding to ACC1 CT domain; conditions: carboxyterminus (CT) domain, pH 7.0, read-out: ACC1 TF Kd
# T2 construct: Human ACC1 (amino acids 1603-2383); 6His (N); FLAG (N); TEV cleavage site (N); made in house; host or cells: Sf9 insect cells (baculovirus)
# Protocol: as §1, §2
# [3] = test system: ApoB secretion from HepG2 cells; assay: ApoB secretion from HepG2 cells; assay type: cell-based; conditions: Homo sapiens, 24 hours, ApoB in medium by ELISA
# Protocol: HepG2 cells (American Type Culture Collection: Catalog No. #HB-8065) are maintained in Growth Media consisting of DMEM with 4.5 g/L glucose (Cellgro: Catalog No. #10-013-CV), supplemented with 10% fetal bovine serum (FBS) (Cellgro: Catalog No. #35-011-CV) and 100 U/mL each penicillin and streptomycin (Cellgro: Catalog No. #30-002-Cl). For the assay, cells are plated @ ˜10,000 cells/well in white, clear-bottom, 96-well plates (Costar: Catalog No. #3610) and incubated in a humidified 5% CO2 atmosphere at 37° C. The next day, Growth Media is replaced with RPMI 1640 without glucose (Cellgro: Catalog No. #10-043-CV), supplemented with 10% charcoal/dextran treated FBS (Hyclone: Catalog No. #SH30068.02) and 100 U/mL each penicillin and streptomycin (starvation media). The cells are maintained overnight in a humidified 5% CO2 atmosphere at 37° C. […] Twenty-four hours later, the growth medium is collected and assessed for ApoB content. […]
# The samples are removed and the plate is washed again 3× with 200 μL PBST, then 100 μL of 1/10,000 HRP-conjugated, affinity-purified polyclonal sheep anti-human ApoB detection antibody (BioDesign International Product No. # K90086P) is added to each well and the plate is incubated for one hour at 37° C. […] The plate is read for one second in an Orion Microplate Luminometer®. […]
structure (smiles),measurement,setting,value
"Cc1ccc2nc(-c3ccncc3)cc(C(=O)N3CCN(Cc4ccc5c(c4)OCCO5)CC3)c2c1 [Cpd 1, [4-(2,3-Dihydro-benzo[1,4]dioxin-6-ylmethyl)-piperazin-1-yl]-(6-methyl-2-pyridin-4-yl-quinolin-4-yl)methanone]",Kd,[1],400 nM
same,Kd,[2],970 nM
same,IC50,[3],8000 nM
